# Source: paper PMC5290327, “SC83288 is a clinical development candidate for the treatment of severe malaria” (Nature Communications, 2017)
# Tests used:
# Experiment in all cases: KINOMEscan
# Assay type in all cases: binding
# Details in all cases: read-out: Remaining enzyme activity
# MAK = target: T1, MAK (Homo sapiens, UniProt P20794)
# T1 construct: purchased Ambit (DiscoverX) KINOMEscan; Cerep
# Procedure, shortened: (§1)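 SC81458 was screened at a single 10 μM final concentration for its ability to compete with an immobilized, active-site directed ligand for each kinase. Kinase in the eluates was measured by quantitative PCR. Beads were blocked with biotin and SeaBlock buffer holding 1% BSA, 0.05% Tween 20 and 1 mM DTT.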
# MLCK = target: T2, MLCK (Homo sapiens, UniProt Q32MK0)
# T2 construct: purchased Ambit (DiscoverX) KINOMEscan; Cerep
# Procedure, shortened: as §1
# KIT(D816V) = target: T3, KIT(D816V) (Homo sapiens, UniProt P10721, D816V)
# T3 construct: purchased Ambit (DiscoverX) KINOMEscan; Cerep
# Procedure, shortened: as §1
# CAMK2a = target: T4, CAMK2a (Homo sapiens, UniProt Q9UQM7)
# T4 construct: purchased Ambit (DiscoverX) KINOMEscan; Cerep
# Procedure, shortened: as §1
# PRKCQ = target: T5, PRKCQ (Homo sapiens, UniProt Q04759)
# T5 construct: purchased Ambit (DiscoverX) KINOMEscan; Cerep
# Procedure, shortened: as §1
# SIK = target: T6, SIK (Homo sapiens, UniProt P57059)
# T6 construct: purchased Ambit (DiscoverX) KINOMEscan; Cerep
# Procedure, shortened: as §1
# CDK9 = target: T7, CDK9 (Homo sapiens, UniProt P50750)
# T7 construct: purchased Ambit (DiscoverX) KINOMEscan; Cerep
# Procedure, shortened: as §1
# [1] = target: T8, JAK3(JH1domain-catalytic) (Homo sapiens, UniProt P52333)
# T8 construct: JAK3(JH1domain-catalytic); purchased Ambit (DiscoverX) KINOMEscan; Cerep
# Procedure, shortened: as §1
# PKN1 = target: T9, PKN1 (Homo sapiens, UniProt Q16512)
# T9 construct: purchased Ambit (DiscoverX) KINOMEscan; Cerep
# Procedure, shortened: as §1
# ERBB2 = target: T10, ERBB2 (Homo sapiens, UniProt P04626)
# T10 construct: purchased Ambit (DiscoverX) KINOMEscan; Cerep
# Procedure, shortened: as §1
# ROCK2 = target: T11, ROCK2 (Homo sapiens, UniProt O75116)
# T11 construct: purchased Ambit (DiscoverX) KINOMEscan; Cerep
# Procedure, shortened: as §1
# PAK6 = target: T12, PAK6 (Homo sapiens, UniProt Q9NQU5)
# T12 construct: purchased Ambit (DiscoverX) KINOMEscan; Cerep
# Procedure, shortened: as §1
# ACVR2a = target: T13, ACVR2a (Homo sapiens, UniProt P27037)
# T13 construct: purchased Ambit (DiscoverX) KINOMEscan; Cerep
# Procedure, shortened: as §1
# PLK2 = target: T14, PLK2 (Homo sapiens, UniProt Q9NYY3)
# T14 construct: purchased Ambit (DiscoverX) KINOMEscan; Cerep
# Procedure, shortened: as §1
# PRKX = target: T15, PRKX (Homo sapiens, UniProt P51817)
# T15 construct: purchased Ambit (DiscoverX) KINOMEscan; Cerep
# Procedure, shortened: as §1
# GRK7 = target: T16, GRK7 (Homo sapiens, UniProt Q8WTQ7)
# T16 construct: purchased Ambit (DiscoverX) KINOMEscan; Cerep
# Procedure, shortened: as §1
# MST3 = target: T17, MST3 (Homo sapiens, UniProt Q9Y6E0)
# T17 construct: purchased Ambit (DiscoverX) KINOMEscan; Cerep
# Procedure, shortened: as §1
# CDC2L1 = target: T18, CDC2L1 (Homo sapiens, UniProt P21127)
# T18 construct: purchased Ambit (DiscoverX) KINOMEscan; Cerep
# Procedure, shortened: as §1
# SRPK2 = target: T19, SRPK2 (Homo sapiens, UniProt P78362)
# T19 construct: purchased Ambit (DiscoverX) KINOMEscan; Cerep
# Procedure, shortened: as §1
# CSK = target: T20, CSK (Homo sapiens, UniProt P41240)
# T20 construct: purchased Ambit (DiscoverX) KINOMEscan; Cerep
# Procedure, shortened: as §1
# ERK2 = target: T21, ERK2 (Homo sapiens, UniProt P28482)
# T21 construct: purchased Ambit (DiscoverX) KINOMEscan; Cerep
# Procedure, shortened: as §1
# TTK = target: T22, TTK (Homo sapiens, UniProt P33981)
# T22 construct: purchased Ambit (DiscoverX) KINOMEscan; Cerep
# Procedure, shortened: as §1
# WEE2 = target: T23, WEE2 (Homo sapiens, UniProt P0C1S8)
# T23 construct: purchased Ambit (DiscoverX) KINOMEscan; Cerep
# Procedure, shortened: as §1
# [2] = target: T24, RPS6KA3(Kin.Dom.1-N-term) (Homo sapiens, UniProt P51812)
# T24 construct: RPS6KA3(Kin.Dom.1-N-term); purchased Ambit (DiscoverX) KINOMEscan; Cerep
# Procedure, shortened: as §1
# BMX = target: T25, BMX (Homo sapiens, UniProt P51813)
# T25 construct: purchased Ambit (DiscoverX) KINOMEscan; Cerep
# Procedure, shortened: as §1
# TNK2 = target: T26, TNK2 (Homo sapiens, UniProt Q07912)
# T26 construct: purchased Ambit (DiscoverX) KINOMEscan; Cerep
# Procedure, shortened: as §1
# ALK = target: T27, ALK (Homo sapiens, UniProt Q9UM73)
# T27 construct: purchased Ambit (DiscoverX) KINOMEscan; Cerep
# Procedure, shortened: as §1
# PRKCE = target: T28, PRKCE (Homo sapiens, UniProt Q02156)
# T28 construct: purchased Ambit (DiscoverX) KINOMEscan; Cerep
# Procedure, shortened: as §1
# [3] = target: T29, JAK1(JH1domain-catalytic) (Homo sapiens, UniProt P23458)
# T29 construct: JAK1(JH1domain-catalytic); purchased Ambit (DiscoverX) KINOMEscan; Cerep
# Procedure, shortened: as §1
# TLK2 = target: T30, TLK2 (Homo sapiens, UniProt Q86UE8)
# T30 construct: purchased Ambit (DiscoverX) KINOMEscan; Cerep
# Procedure, shortened: as §1
# [4] = target: T31, RPS6KA1(Kin.Dom.2-C-term) (Homo sapiens, UniProt Q15418)
# T31 construct: RPS6KA1(Kin.Dom.2-C-term); purchased Ambit (DiscoverX) KINOMEscan; Cerep
# Procedure, shortened: as §1
# FLT3(K663Q) = target: T32, FLT3(K663Q) (Homo sapiens, UniProt P36888, K663Q)
# T32 construct: purchased Ambit (DiscoverX) KINOMEscan; Cerep
# Procedure, shortened: as §1
# T8 sequence (P52333 822-1124 limits assumed): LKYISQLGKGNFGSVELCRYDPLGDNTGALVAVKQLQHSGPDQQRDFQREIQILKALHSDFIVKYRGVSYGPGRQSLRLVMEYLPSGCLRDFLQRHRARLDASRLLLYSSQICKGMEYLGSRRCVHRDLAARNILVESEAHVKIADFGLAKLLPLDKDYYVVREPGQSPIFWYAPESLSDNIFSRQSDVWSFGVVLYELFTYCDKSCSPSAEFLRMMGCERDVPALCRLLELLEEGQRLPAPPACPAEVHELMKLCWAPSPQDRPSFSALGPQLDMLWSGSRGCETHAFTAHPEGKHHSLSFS
# T24 sequence (P51812 68-327 limits assumed): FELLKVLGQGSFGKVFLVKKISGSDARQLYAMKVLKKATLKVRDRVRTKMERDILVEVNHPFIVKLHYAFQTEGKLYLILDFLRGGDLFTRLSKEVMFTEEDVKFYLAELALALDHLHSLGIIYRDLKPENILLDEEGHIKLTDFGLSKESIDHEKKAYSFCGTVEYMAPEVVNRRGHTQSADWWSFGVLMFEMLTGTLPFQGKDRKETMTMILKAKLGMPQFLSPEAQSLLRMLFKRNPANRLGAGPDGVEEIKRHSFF
# T19 sequence (P78362 whole entry): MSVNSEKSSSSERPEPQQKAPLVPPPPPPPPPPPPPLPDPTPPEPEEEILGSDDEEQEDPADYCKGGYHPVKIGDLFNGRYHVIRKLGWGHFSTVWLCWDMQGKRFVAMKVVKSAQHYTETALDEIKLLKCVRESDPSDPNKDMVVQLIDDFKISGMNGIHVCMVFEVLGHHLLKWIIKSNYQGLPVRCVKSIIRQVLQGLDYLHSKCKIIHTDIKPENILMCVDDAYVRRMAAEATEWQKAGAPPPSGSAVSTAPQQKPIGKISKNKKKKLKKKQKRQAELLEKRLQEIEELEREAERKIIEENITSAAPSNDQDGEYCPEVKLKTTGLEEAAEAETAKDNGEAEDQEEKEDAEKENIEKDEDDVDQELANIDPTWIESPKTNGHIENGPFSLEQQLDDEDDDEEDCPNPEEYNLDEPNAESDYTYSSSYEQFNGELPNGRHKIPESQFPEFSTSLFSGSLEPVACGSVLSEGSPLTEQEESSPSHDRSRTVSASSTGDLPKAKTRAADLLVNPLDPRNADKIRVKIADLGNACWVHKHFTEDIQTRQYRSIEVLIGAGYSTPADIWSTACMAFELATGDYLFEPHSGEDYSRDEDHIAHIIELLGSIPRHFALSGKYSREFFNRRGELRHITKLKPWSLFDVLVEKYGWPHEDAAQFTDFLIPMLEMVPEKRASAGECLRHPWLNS
# T12 sequence (Q9NQU5 whole entry): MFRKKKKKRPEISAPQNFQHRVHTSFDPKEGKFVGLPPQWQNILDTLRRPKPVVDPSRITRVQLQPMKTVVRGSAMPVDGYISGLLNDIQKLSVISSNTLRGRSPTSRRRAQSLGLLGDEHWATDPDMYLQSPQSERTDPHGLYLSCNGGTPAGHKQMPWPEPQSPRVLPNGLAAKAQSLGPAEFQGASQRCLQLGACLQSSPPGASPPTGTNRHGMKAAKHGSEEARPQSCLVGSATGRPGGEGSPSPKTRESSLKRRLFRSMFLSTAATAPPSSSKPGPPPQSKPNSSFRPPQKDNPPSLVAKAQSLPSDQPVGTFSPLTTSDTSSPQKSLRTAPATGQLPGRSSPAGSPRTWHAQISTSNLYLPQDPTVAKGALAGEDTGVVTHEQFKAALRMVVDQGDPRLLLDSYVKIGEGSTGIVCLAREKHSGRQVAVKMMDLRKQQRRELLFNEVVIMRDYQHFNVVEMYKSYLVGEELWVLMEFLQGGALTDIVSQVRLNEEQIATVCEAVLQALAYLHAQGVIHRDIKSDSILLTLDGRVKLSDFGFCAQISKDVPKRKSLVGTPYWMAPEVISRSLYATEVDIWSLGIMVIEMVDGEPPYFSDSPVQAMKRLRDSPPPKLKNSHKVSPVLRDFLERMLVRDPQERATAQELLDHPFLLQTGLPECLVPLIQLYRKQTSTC
# T20 sequence (P41240 whole entry): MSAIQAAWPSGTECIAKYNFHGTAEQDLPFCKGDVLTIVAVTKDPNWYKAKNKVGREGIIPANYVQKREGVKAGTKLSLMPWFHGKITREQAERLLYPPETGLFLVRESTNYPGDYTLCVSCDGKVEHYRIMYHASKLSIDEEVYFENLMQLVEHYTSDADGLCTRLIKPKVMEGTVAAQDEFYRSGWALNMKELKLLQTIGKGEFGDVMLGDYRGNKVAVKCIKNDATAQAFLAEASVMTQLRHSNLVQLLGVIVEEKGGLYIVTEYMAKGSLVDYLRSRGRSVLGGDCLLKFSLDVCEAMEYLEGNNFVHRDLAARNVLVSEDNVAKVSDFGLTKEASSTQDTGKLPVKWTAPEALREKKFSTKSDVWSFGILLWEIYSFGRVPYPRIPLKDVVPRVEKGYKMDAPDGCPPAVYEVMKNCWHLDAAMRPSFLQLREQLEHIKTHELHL
# T25 sequence (P51813 whole entry): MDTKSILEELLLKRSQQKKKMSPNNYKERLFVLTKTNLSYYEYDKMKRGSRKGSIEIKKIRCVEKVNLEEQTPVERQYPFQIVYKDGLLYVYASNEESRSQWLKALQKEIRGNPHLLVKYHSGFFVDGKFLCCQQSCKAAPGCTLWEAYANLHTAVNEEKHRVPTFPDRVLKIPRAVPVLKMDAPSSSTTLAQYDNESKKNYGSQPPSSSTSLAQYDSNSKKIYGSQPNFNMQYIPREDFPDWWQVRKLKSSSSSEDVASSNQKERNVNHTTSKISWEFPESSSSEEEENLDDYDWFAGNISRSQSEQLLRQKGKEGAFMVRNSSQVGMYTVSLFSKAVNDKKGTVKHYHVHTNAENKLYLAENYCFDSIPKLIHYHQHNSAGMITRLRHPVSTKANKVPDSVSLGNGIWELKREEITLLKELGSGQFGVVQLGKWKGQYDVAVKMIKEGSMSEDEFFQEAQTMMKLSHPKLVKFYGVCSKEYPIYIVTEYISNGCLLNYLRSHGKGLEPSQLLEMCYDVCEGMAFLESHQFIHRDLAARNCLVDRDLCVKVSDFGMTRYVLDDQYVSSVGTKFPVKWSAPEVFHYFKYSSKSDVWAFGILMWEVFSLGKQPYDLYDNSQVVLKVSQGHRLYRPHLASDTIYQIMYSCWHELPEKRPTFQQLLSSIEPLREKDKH
# T6 sequence (P57059 whole entry): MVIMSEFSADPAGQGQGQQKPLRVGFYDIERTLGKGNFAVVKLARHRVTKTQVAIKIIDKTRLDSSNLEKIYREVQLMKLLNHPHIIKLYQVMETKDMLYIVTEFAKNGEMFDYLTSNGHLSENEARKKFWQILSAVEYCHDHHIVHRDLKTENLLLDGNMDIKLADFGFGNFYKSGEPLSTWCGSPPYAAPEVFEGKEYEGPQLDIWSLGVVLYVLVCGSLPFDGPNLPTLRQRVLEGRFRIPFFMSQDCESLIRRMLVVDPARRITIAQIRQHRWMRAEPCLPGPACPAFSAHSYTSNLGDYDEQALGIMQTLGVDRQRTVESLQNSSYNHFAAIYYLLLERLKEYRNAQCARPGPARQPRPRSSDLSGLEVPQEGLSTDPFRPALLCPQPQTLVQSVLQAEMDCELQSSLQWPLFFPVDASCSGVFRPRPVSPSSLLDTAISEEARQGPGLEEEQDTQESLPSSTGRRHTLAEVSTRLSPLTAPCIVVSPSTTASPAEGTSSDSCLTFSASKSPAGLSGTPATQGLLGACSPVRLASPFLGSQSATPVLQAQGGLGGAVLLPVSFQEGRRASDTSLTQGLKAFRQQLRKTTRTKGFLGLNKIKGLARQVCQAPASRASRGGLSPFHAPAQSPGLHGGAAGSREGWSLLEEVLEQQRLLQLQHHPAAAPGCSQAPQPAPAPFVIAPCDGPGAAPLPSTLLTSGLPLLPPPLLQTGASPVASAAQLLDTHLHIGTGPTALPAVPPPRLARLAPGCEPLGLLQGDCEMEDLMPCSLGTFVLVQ
# T3 sequence (P10721 26-976 D816V): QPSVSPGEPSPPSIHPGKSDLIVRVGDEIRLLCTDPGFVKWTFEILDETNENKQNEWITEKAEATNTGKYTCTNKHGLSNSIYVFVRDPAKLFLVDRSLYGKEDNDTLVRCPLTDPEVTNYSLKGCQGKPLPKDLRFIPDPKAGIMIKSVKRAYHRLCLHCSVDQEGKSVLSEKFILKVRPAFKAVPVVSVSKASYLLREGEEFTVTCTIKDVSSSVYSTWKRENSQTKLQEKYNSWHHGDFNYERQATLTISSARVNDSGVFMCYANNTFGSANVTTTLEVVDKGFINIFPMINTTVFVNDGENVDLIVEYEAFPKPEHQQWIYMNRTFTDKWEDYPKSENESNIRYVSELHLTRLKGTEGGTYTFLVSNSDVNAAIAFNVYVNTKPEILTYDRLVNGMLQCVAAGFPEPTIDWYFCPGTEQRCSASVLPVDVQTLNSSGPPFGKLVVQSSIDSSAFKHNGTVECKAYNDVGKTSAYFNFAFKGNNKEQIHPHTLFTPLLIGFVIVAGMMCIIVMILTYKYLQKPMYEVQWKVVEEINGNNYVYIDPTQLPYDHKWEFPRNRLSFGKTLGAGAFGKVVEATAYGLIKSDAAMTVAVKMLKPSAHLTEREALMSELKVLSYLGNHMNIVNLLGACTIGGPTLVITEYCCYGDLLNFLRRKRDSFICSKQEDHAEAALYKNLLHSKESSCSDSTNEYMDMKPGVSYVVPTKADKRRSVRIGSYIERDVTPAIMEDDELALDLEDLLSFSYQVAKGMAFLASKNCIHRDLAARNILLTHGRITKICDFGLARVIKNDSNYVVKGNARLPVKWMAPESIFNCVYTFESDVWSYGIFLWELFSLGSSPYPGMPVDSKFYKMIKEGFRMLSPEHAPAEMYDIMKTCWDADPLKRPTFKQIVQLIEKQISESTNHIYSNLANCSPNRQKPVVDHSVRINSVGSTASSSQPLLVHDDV
compound,measurement,setting,value
"CCCCN1CCN(C(=N)c2cccc(NC(=O)Nc3ccc(S(=O)(=O)NCc4ccc(S(N)(=O)=O)cc4)cc3)c2)CC1 [SC81458, 4-(3-(3-((4-butylpiperazin-1-yl)(imino)methyl)phenyl)ureido)-N-(4-sulfamoylbenzyl) benzenesulfonamide]",remaining binding at 10 µM,MAK,91%
same,remaining binding at 10 µM,MLCK,100%
same,remaining binding at 10 µM,KIT(D816V),100%
same,remaining binding at 10 µM,CAMK2a,100%
same,remaining binding at 10 µM,PRKCQ,100%
same,remaining binding at 10 µM,SIK,97%
same,remaining binding at 10 µM,CDK9,100%
same,remaining binding at 10 µM,[1],100%
same,remaining binding at 10 µM,PKN1,100%
same,remaining binding at 10 µM,ERBB2,100%
same,remaining binding at 10 µM,ROCK2,76%
same,remaining binding at 10 µM,PAK6,95%
same,remaining binding at 10 µM,ACVR2a,100%
same,remaining binding at 10 µM,PLK2,100%
same,remaining binding at 10 µM,PRKX,72%
same,remaining binding at 10 µM,GRK7,100%
same,remaining binding at 10 µM,MST3,100%
same,remaining binding at 10 µM,CDC2L1,100%
same,remaining binding at 10 µM,SRPK2,93%
same,remaining binding at 10 µM,CSK,100%
same,remaining binding at 10 µM,ERK2,80%
same,remaining binding at 10 µM,TTK,91%
same,remaining binding at 10 µM,WEE2,100%
same,remaining binding at 10 µM,[2],100%
same,remaining binding at 10 µM,BMX,100%
same,remaining binding at 10 µM,TNK2,94%
same,remaining binding at 10 µM,ALK,100%
same,remaining binding at 10 µM,PRKCE,100%
same,remaining binding at 10 µM,[3],87%
same,remaining binding at 10 µM,TLK2,97%
same,remaining binding at 10 µM,[4],100%
same,remaining binding at 10 µM,FLT3(K663Q),93%
